Test results as given in patent US9409122B2, “Gas capture process” (Commonwealth Scientific and Industrial Research Organisation, priority 2011, dated 2016).

Assay: CO2 desorption at 90° C.
Assay type: physicochemical
Experimental: The test results (shown in the accompanying figures) are a comparison of four compounds within general formula (I) with 4-aminopiperidine in terms of their CO2 absorption at 40° C. (FIG. 2(a)) and CO2 desorption at 90° C. (FIG. 2(b)). These absorption experiments were carried with CO2 gas (99%).
In FIG. 3, CO2 absorption and desorption results for Compounds 1 to 4 and 4-aminopiperidine (2M and 1.7M in one case due to the material availability) were compared with MEA (4M) and piperazine (Pz) (2M). An MEA concentration of 4M was chosen in this comparison to match the total amine/nitrogen concentration of diamines (2×2M).

Compound: C1CNCCN1 [Pz, piperazine]
- stability of carbamate: reasonably stable
